# Measurements reported in US20060069132A1, “Azolecarboxamide herbicides” (priority 2004, published 2006).
# How the values were obtained:
# bermudagrass = test: Test C pre-/postemergence herbicide test; assay type: in vivo, Cynodon dactylon; settings: for Plant response rating, Bermudagrass / Plant response rating (0 = no effect, 100 = complete control), Bermudagrass: preemergence; for Bermudagrass plant response rating: Preemergence
# How it was run: (§1)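 Pre/post spray; non-phytotoxic solvent + surfactant. Post-timing 1–4 leaves, 2–18 cm. Read-out: visual % control vs untreated, day 12–14, greenhouse.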
# large crabgrass = test: Test C pre-/postemergence herbicide test; assay type: in vivo, Digitaria sanguinalis; settings: for Plant response rating, Crabgrass, Large / Plant response rating (0 = no effect, 100 = complete control), Crabgrass, Large: preemergence
# How it was run: as §1
# woolly cupgrass = test: Test C pre-/postemergence herbicide test; assay type: in vivo, Eriochloa villosa; settings: for Plant response rating, Cupgrass, Woolly / Plant response rating (0 = no effect, 100 = complete control), Cupgrass, Woolly: preemergence
# How it was run: as §1
# giant foxtail = test: Test C pre-/postemergence herbicide test; assay type: in vivo, Setaria faberi; settings: for Plant response rating, Foxtail, Giant / Plant response rating (0 = no effect, 100 = complete control), Foxtail, Giant: preemergence
# How it was run: as §1
# goosegrass = test: Test C pre-/postemergence herbicide test; assay type: in vivo, Eleusine indica; settings: for Plant response rating, Goosegrass / Plant response rating (0 = no effect, 100 = complete control), Goosegrass: preemergence
# How it was run: as §1
# pigweed = test: Test C pre-/postemergence herbicide test; assay type: in vivo, Amaranthus retroflexus; settings: for Plant response rating, Pigweed / Plant response rating (0 = no effect, 100 = complete control), Pigweed: preemergence
# How it was run: as §1
# ducksalad = test: Test C flooded paddy test; assay type: in vivo, Heteranthera limosa; settings: for Plant response rating, Ducksalad: 500 g ai/ha, visual rating after 12 to 14 days
# [1] = 62 g ai/ha, scale 0 to 100, 0 no effect, 100 complete control
# [2] = 125 g ai/ha, scale 0 (no effect) to 100 (complete control), visual, 12 to 14 days
# [3] = 250 g ai/ha, scale 0 to 100 (0 no effect, 100 complete control), visual, 12 to 14 days
# [4] = 500 g ai/ha, scale 0 to 100, 0 no effect, 100 complete control
# [5] = Preemergence, 500 g ai/ha, scale 0 to 100, 0 no effect, 100 complete control
# [6] = 125 g ai/ha, scale 0 to 100 (0 no effect, 100 complete control)
# [7] = 250 g ai/ha, scale of 0 to 100, 0 is no effect, 100 is complete control
# [8] = scale 0 to 100 (0 no effect, 100 complete control)
# [9] = 500 g ai/ha, scale 0 to 100 (0 no effect, 100 complete control), visual, 12 to 14 days
Structure (SMILES),"Plant response rating, Bermudagrass (bermudagrass; [1])","Plant response rating, Crabgrass, Large (large crabgrass; 62 g ai/ha, scale 0 to 100)","Plant response rating, Cupgrass, Woolly (woolly cupgrass; 62 g ai/ha, scale 0 to 100)","Plant response rating, Foxtail, Giant (giant foxtail; 62 g ai/ha, scale 0 to 100)","Plant response rating, Goosegrass (goosegrass; 62 g ai/ha, scale 0 to 100)","Plant response rating, Pigweed (pigweed; 62 g ai/ha, scale 0 to 100)",Ducksalad plant response rating (ducksalad; [6]),Ducksalad plant response rating (ducksalad; [7]),"Plant response rating, Ducksalad (ducksalad; [8])","Plant response rating, Bermudagrass (bermudagrass; 250 g ai/ha, scale 0-100)","Plant response rating, Crabgrass, Large (large crabgrass; 250 g ai/ha, scale 0-100)","Plant response rating, Crabgrass, Large (large crabgrass; [9])","Plant response rating, Cupgrass, Woolly (woolly cupgrass; 250 g ai/ha, scale 0-100)","Plant response rating, Cupgrass, Woolly (woolly cupgrass; [9])","Plant response rating, Foxtail, Giant (giant foxtail; 250 g ai/ha, scale 0-100)","Plant response rating, Foxtail, Giant (giant foxtail; [9])","Plant response rating, Goosegrass (goosegrass; 250 g ai/ha, scale 0-100)","Plant response rating, Goosegrass (goosegrass; [9])","Plant response rating, Pigweed (pigweed; 250 g ai/ha, scale 0-100)","Plant response rating, Pigweed (pigweed; [9])",other results
"CCn1nc(C(C)(C)C)cc1C(=O)Nc1cccc(C(N)=O)n1 [Compound 162, 6-[[[3-(1,1-dimethylethyl)-1-ethyl-1H-pyrazol-5-yl]carbonyl]amino]-2-pyridinecarboxamide]",0,35,0,55,60,100,85,95,100,,,,,,,,,,,,"Plant response rating, Bermudagrass (bermudagrass; [2]): 0; Plant response rating, Bermudagrass (bermudagrass; [3]): 20; Bermudagrass plant response rating (bermudagrass; [4]): 40; Plant response rating, Crabgrass, Large (large crabgrass; [2]): 40; Plant response rating, Crabgrass, Large (large crabgrass; [3]): 80; Crabgrass, Large plant response rating (large crabgrass; [5]): 100; Plant response rating, Cupgrass, Woolly (woolly cupgrass; [2]): 0; Plant response rating, Cupgrass, Woolly (woolly cupgrass; [3]): 0; Cupgrass, Woolly plant response rating (woolly cupgrass; [5]): 100; Plant response rating, Foxtail, Giant (giant foxtail; [2]): 60; Plant response rating, Foxtail, Giant (giant foxtail; [3]): 60; Foxtail, Giant plant response rating (giant foxtail; [5]): 75; Plant response rating, Goosegrass (goosegrass; [2]): 60; Goosegrass plant response rating (goosegrass; [5]): 80; Plant response rating, Pigweed (pigweed; [2]): 100; Pigweed plant response rating (pigweed; [5]): 100; Ducksalad plant response rating (ducksalad; 62 g ai/ha, scale 0 to 100 (0 no effect, 100 complete control)): 70"
Cc1nn(C(C)(C)C)nc1C(=O)Nc1cccc(C(=O)N2CC=CC2)c1 [Compound 393],60,95,30,70,85,90,75,80,90,100,100,100,90,100,95,100,100,100,100,100,"Plant response rating (0 = no effect, 100 = complete control), Bermudagrass (bermudagrass; 125 g ai/ha): 100; Plant response rating, Bermudagrass (bermudagrass; [9]): 100; Plant response rating (0 = no effect, 100 = complete control), Crabgrass, Large (large crabgrass; 125 g ai/ha): 100; Plant response rating (0 = no effect, 100 = complete control), Cupgrass, Woolly (woolly cupgrass; 125 g ai/ha): 70; Plant response rating (0 = no effect, 100 = complete control), Foxtail, Giant (giant foxtail; 125 g ai/ha): 90; Plant response rating (0 = no effect, 100 = complete control), Goosegrass (goosegrass; 125 g ai/ha): 100; Plant response rating (0 = no effect, 100 = complete control), Pigweed (pigweed; 125 g ai/ha): 100; Ducksalad plant response rating (ducksalad; 62 g ai/ha, scale 0 to 100): 75"
CCNC(=O)c1cccc(NC(=O)c2cc(C3(C)CC3)nn2CC)c1 [Compound 306],40,100,5,5,50,100,80,80,90,90,100,100,30,50,90,100,100,100,100,100,"Plant response rating, Bermudagrass (bermudagrass; [2]): 85; Bermudagrass plant response rating (bermudagrass; [4]): 100; Plant response rating, Crabgrass, Large (large crabgrass; [2]): 100; Plant response rating, Cupgrass, Woolly (woolly cupgrass; [2]): 15; Plant response rating, Foxtail, Giant (giant foxtail; [2]): 40; Plant response rating, Goosegrass (goosegrass; [2]): 70; Plant response rating, Pigweed (pigweed; [2]): 100; Ducksalad plant response rating (ducksalad; 62 g ai/ha, scale 0 to 100): 50"
CCN(C)C(=O)c1ccc(F)c(NC(=O)C2CC(C(C)(C)C)=NN2CC)c1 (racemic) [Compound 307],90,80,5,70,90,100,70,90,90,100,100,100,70,85,100,100,100,100,100,100,"Plant response rating, Bermudagrass (bermudagrass; [2]): 100; Bermudagrass plant response rating (bermudagrass; [4]): 100; Plant response rating, Crabgrass, Large (large crabgrass; [2]): 100; Plant response rating, Cupgrass, Woolly (woolly cupgrass; [2]): 40; Plant response rating, Foxtail, Giant (giant foxtail; [2]): 85; Plant response rating, Goosegrass (goosegrass; [2]): 95; Plant response rating, Pigweed (pigweed; [2]): 100; Ducksalad plant response rating (ducksalad; 62 g ai/ha, scale 0 to 100): 60"
CCNC(=O)c1cccc(NC(=O)c2nn(C(C)(C)C)nc2C)c1 [Compound 392],90,98,30,65,85,100,75,85,85,95,100,100,60,85,100,100,95,98,100,100,"Plant response rating (0 = no effect, 100 = complete control), Bermudagrass (bermudagrass; 125 g ai/ha): 90; Plant response rating, Bermudagrass (bermudagrass; [9]): 95; Plant response rating (0 = no effect, 100 = complete control), Crabgrass, Large (large crabgrass; 125 g ai/ha): 100; Plant response rating (0 = no effect, 100 = complete control), Cupgrass, Woolly (woolly cupgrass; 125 g ai/ha): 40; Plant response rating (0 = no effect, 100 = complete control), Foxtail, Giant (giant foxtail; 125 g ai/ha): 90; Plant response rating (0 = no effect, 100 = complete control), Goosegrass (goosegrass; 125 g ai/ha): 95; Plant response rating (0 = no effect, 100 = complete control), Pigweed (pigweed; 125 g ai/ha): 100; Ducksalad plant response rating (ducksalad; 62 g ai/ha, scale 0 to 100): 45"
